Where a name gives a salt, the structure may show the parent alone. Read-outs that look alike come from different tables or passages of the source.
Key:
[1] = test system: Pseudotyped HCV GT1b particles (HCVpp), entry into Huh7-high CD81 cells; experiment: microbe, parasite or virus in culture; type: cell-based, HCV GT1b Con1 strain
[2] = test system: pseudotyped VSV G particles (VSVpp) in Huh7-high CD81 cells; experiment: microbe, parasite or virus in culture; type: cell-based, vesicular stomatitis virus
[3] = Hepatitis C virus, GT1B, 72 h, read-out: HCVpp GT-1b (EC50, μM)
[4] = Vesicular stomatitis virus, 72 h, read-out: VSVpp (EC50, μM)

**Q.** Which results are given for `COC(=O)c1ccc(-c2c(Cl)cc(Nc3n[nH]c(N)n3)cc2Cl)cc1` [Compound 110, 4′-(5-Amino-1H-[1,2,4]triazol-3-ylamino)-2′,6′-dichloro-biphenyl-4-carboxylic acid methyl ester]?
**A.** EC50 [1, 3]: 0.1 µM; EC50 [2, 4]: 25 µM

**Q.** Which EC50 [1, 3] does the source give for `CS(=O)(=O)c1ccc(-c2ccc(Nc3n[nH]c(N)n3)cc2Cl)c(F)c1` [Compound 157, N3-(2-chloro-2′-fluoro-4′-(methylsulfonyl)biphenyl-4-yl)-1H-1,2,4-triazole-3,5-diamine] here?
**A.** Its EC50 is 1.33 µM.

**Q.** What about the EC50 [2, 4] of the same compound?
**A.** The EC50 was 5.16 µM.

**Q.** How did the EC50 [1, 3] turn out when `CN1CCCC(Oc2ccc(-c3c(Cl)cc(Nc4n[nH]c(N)n4)cc3C(F)(F)F)cc2)C1` (centres unmarked) [Compound 132, N*3*-[6-Chloro-4′-(1-methyl-piperidin-3-yloxy)-2-trifluoromethyl-biphenyl-4-yl]-1H-[1,2,4]triazole-3,5-diamine hydrochloride] was run?
**A.** The EC50 was 0.088 µM.

**Q.** What about the EC50 [2, 4] of the same compound?
**A.** Its EC50 is 6.13 µM.

**Q.** For `NCCCCOc1ccc(-c2c(Cl)cc(Nc3n[nH]c(N)n3)cc2Cl)cc1` [Compound 49, N*3*-[4′-(4-Amino-butoxy)-2,6-dichloro-biphenyl-4-yl]-1H-[1,2,4]triazole-3,5-diamine; trifluoro-acetate], which EC50 [1, 3] is on record?
**A.** Its EC50 is 0.455 µM.

**Q.** What about the EC50 [2, 4] of the same compound?
**A.** Its EC50 is > 10 µM.

**Q.** How did the EC50 [1, 3] turn out when `Nc1nc(Nc2cc(Cl)c(-c3ccc(OC4CCN(CCC(F)(F)F)CC4)cc3)c(C(F)(F)F)c2)n[nH]1` [Compound 140, N*3*-{6-Chloro-2-trifluoromethyl-4′-[1-(3,3,3-trifluoro-propyl)-piperidin-4-yloxy]-biphenyl-4-yl}-1H-[1,2,4]triazole-3,5-diamine hydrochloride] was run?
**A.** The EC50 was 0.111 µM.

**Q.** And the EC50 [2, 4]?
**A.** The EC50 was > 10 µM.

**Q.** Which EC50 [1, 3] does the source give for `Nc1nc(Nc2cc(Cl)c(-c3ccc(S(=O)(=O)N[C@H]4C[C@@H](O)C4)cc3)c(C(F)(F)F)c2)n[nH]1` [Compound 174, 4′-(5-amino-1H-1,2,4-triazol-3-ylamino)-2′-chloro-N-(cis-3-hydroxycyclobutyl)-6′-(trifluoromethyl)biphenyl-4-sulfonamide] here?
**A.** Its EC50 is 0.038 µM.

**Q.** What about the EC50 [2, 4] of the same compound?
**A.** Its EC50 is > 10 µM.

**Q.** How did the EC50 [1, 3] turn out when `Nc1nc(Nc2ccc(-c3ccccc3Cl)c(Cl)c2)n[nH]1` [Compound 155, N*3*-(2,2′-Dichloro-biphenyl-4-yl)-1H-[1,2,4]triazole-3,5-diamine] was run?
**A.** The EC50 was 1.66 µM.

**Q.** And the EC50 [2, 4]?
**A.** The EC50 was 7.46 µM.

**Q.** Which results are given for `CC(C)(C)OC(=O)N1CCCC(Oc2ccc(-c3c(Cl)cc(Nc4n[nH]c(N)n4)cc3C(F)(F)F)cc2)C1` (centres unmarked) [Compound 129, 3-[4′-(5-Amino-1H-[1,2,4]triazol-3-ylamino)-6′-chloro-2′-trifluoromethyl-biphenyl-4-yloxy]-piperidine-1-carboxylic acid tert-butyl ester]?
**A.** EC50 [1, 3]: 0.017 µM; EC50 [2, 4]: 9.62 µM

**Q.** Which results are given for `COc1ccc(-c2c(Cl)cc(Nc3n[nH]c(N)n3)cc2C(F)(F)F)cc1S(=O)(=O)NC1CCN(C(C)=O)CC1` [Compound 227, 4′-(5-Amino-1H-[1,2,4]triazol-3-ylamino)-6′-chloro-4-methoxy-2′-trifluoromethyl-biphenyl-3-sulfonic acid (1-acetyl-piperidin-4-yl)-amide]?
**A.** EC50 [1, 3]: 0.042 µM; EC50 [2, 4]: > 10 µM

**Q.** How did the EC50 [1, 3] turn out when `CN(C)C(=O)c1ccc(-c2c(F)cc(Nc3nc(N)n[nH]3)cc2C(F)(F)F)cc1` [Compound 85, 4′-(5-Amino-2H-[1,2,4]-triazol-3-ylamino)-6′-fluoro-2′-trifluoromethyl-biphenyl-4-carboxylic acid dimethylamide] was run?
**A.** The EC50 was 0.568 µM.

**Q.** And the EC50 [2, 4]?
**A.** Its EC50 is > 10 µM.

**Q.** For `Nc1nc(Nc2cc(Cl)c(-c3ccc(OC[C@@H]4CCCN4)cc3)c(C(F)(F)F)c2)n[nH]1` [Compound 270, N*3*-[6-Chloro-4′-((S)-1-pyrrolidin-2-ylmethoxy)-2-trifluoromethyl-biphenyl-4-yl]-1H-[1,2,4]triazole-3,5-diamine], which EC50 [1, 3] is on record?
**A.** Its EC50 is 0.117 µM.

**Q.** What about the EC50 [2, 4] of the same compound?
**A.** The EC50 was 33.3 µM.

**Q.** With `CC(C)(C)CCN1CCC(S(=O)(=O)c2ccc(-c3c(Cl)cc(Nc4n[nH]c(N)n4)cc3C(F)(F)F)cc2)CC1` [Compound 5, N*3*-{2-Chloro-4′-[1-(3,3-dimethyl-butyl)-piperidine-4-sulfonyl]-6-trifluoromethyl-biphenyl-4-yl}-1H-[1,2,4]triazole-3,5-diamine; hydrochloride] as the compound, how does the EC50 [1, 3] read?
**A.** The EC50 was 0.005 µM.

**Q.** And the EC50 [2, 4]?
**A.** Its EC50 is > 10 µM.

**Q.** What does the source list for `Nc1nc(Nc2cc(Cl)c(-c3ccc(S(=O)(=O)C4CCNCC4)cc3)c(C(F)(F)F)c2)n[nH]1` [Compound 20, N3-(2-chloro-4′-(piperidin-4-ylsulfonyl)-6-(trifluoromethyl)biphenyl-4-yl)-1H-1,2,4-triazole-3,5-diamine hydrochloride]?
**A.** EC50 [1, 3]: 0.053 µM; EC50 [2, 4]: 3.46 µM

**Q.** `CNC(=O)c1cc(-c2c(Cl)cc(Nc3n[nH]c(N)n3)cc2C(F)(F)F)ccc1F` [Compound 292, 4′-(5-amino-1H-1,2,4-triazol-3-ylamino)-2′-chloro-4-fluoro-N-methyl-6′-(trifluoromethyl)biphenyl-3-carboxamide] was tested. Which EC50 [1, 3] did it give?
**A.** The EC50 was 0.647 µM.

**Q.** What about the EC50 [2, 4] of the same compound?
**A.** The EC50 was 29.2 µM.

**Q.** How did the EC50 [1, 3] turn out when `COc1ccc(-c2c(Cl)cc(Nc3n[nH]c(N)n3)cc2C(F)(F)F)cc1C(F)(F)F` [Compound 231, N*3*-(6-Chloro-4′-methoxy-2,3′-bis-trifluoromethyl-biphenyl-4-yl)-1H-[1,2,4]triazole-3,5-diamine] was run?
**A.** The EC50 was 0.41 µM.

**Q.** What about the EC50 [2, 4] of the same compound?
**A.** Its EC50 is > 10 µM.

**Q.** With `Nc1nc(Nc2cc(Cl)c(-c3ccc(S(=O)(=O)NC4CC4)cc3)c(C(F)(F)F)c2)n[nH]1` [Compound 169, 4′-(5-amino-1H-1,2,4-triazol-3-ylamino)-2′-chloro-N-cyclopropyl-6′-(trifluoromethyl)biphenyl-4-sulfonamide] as the compound, how does the EC50 [1, 3] read?
**A.** Its EC50 is 0.011 µM.

**Q.** What about the EC50 [2, 4] of the same compound?
**A.** The EC50 was 3.55 µM.

**Q.** With `CC1(O)CN(S(=O)(=O)c2ccc(-c3c(Cl)cc(Nc4n[nH]c(N)n4)cc3C(F)(F)F)cc2)C1` [Compound 63, 1-[4′-(5-Amino-1H-[1,2,4]triazol-3-ylamino)-6′-chloro-2′-trifluoromethyl-biphenyl-4-sulfonyl]-3-methyl-azetidin-3-ol] as the compound, how does the EC50 [1, 3] read?
**A.** Its EC50 is 0.018 µM.

**Q.** What about the EC50 [2, 4] of the same compound?
**A.** Its EC50 is 3.86 µM.

**Q.** With `CC(C)N1CC(C)(NS(=O)(=O)c2ccc(-c3c(Cl)cc(Nc4n[nH]c(N)n4)cc3C(F)(F)F)cc2)C1` [Compound 211, 4′-(5-amino-1H-1,2,4-triazol-3-ylamino)-2′-chloro-N-(1-isopropyl-3-methylazetidin-3-yl)-6′-(trifluoromethyl)biphenyl-4-sulfonamide; compound with trifluoro-acetic acid] as the compound, how does the EC50 ([1]; read-out: HCVpp GT-1b (EC50)) read?
**A.** Its EC50 is 0.012 µM.

**Q.** And the EC50 ([2]; read-out: VSVpp (EC50))?
**A.** Its EC50 is 3.65 µM.

**Q.** Which results are given for `CN(C)CCOc1ccc(-c2c(Cl)cc(Nc3n[nH]c(N)n3)cc2Cl)cc1` [Compound 269, N*3*-[2,6-Dichloro-4′-(2-dimethylamino-ethoxy)-biphenyl-4-yl]-1H-[1,2,4]triazole-3,5-diamine]?
**A.** EC50 [1, 3]: 0.122 µM; EC50 [2, 4]: 6.09 µM

**Q.** Which results are given for `Nc1nc(Nc2cc(Cl)c(-c3ccc(S(=O)(=O)N4CCCC4)cc3)c(Cl)c2)n[nH]1` [Compound 220, N*3*-[2,6-Dichloro-4′-(pyrrolidine-1-sulfonyl)-biphenyl-4-yl]-1H-[1,2,4]triazole-3,5-diamine]?
**A.** EC50 [1, 3]: 0.028 µM; EC50 [2, 4]: 24.8 µM

**Q.** `Nc1nc(Nc2cc(Cl)c(-c3ccc4[nH]c(=O)[nH]c4c3)c(Cl)c2)n[nH]1` [Compound 255] was tested. Which EC50 [1, 3] did it give?
**A.** Its EC50 is 0.42 µM.

**Q.** And the EC50 [2, 4]?
**A.** Its EC50 is > 10 µM.

**Q.** Which results are given for `CC(C)(C)NCc1ccc(-c2c(Cl)cc(Nc3n[nH]c(N)n3)cc2C(F)(F)F)cc1` [Compound 58, N*3*-[4′-(tert-Butylamino-methyl)-2-chloro-6-trifluoromethyl-biphenyl-4-yl]-1H-[1,2,4]triazole-3,5-diamine; hydrochloride]?
**A.** EC50 [1, 3]: 0.086 µM; EC50 [2, 4]: 4.56 µM

**Q.** For `CS(=O)(=O)c1ccc(-c2c(F)cc(Nc3nc(N)n[nH]3)cc2F)cc1` [Compound 76, N^5-(2,6-difluoro-4′-(methylsulfonyl)biphenyl-4-yl)-1H-[1,2,4]-triazole-3,5-diamine], which EC50 [1, 3] is on record?
**A.** Its EC50 is 0.246 µM.

**Q.** What about the EC50 [2, 4] of the same compound?
**A.** The EC50 was > 10 µM.

**Q.** How did the EC50 [1, 3] turn out when `CC(C)(C)OC(=O)[C@@H]1CCCN1S(=O)(=O)c1ccc(-c2c(Cl)cc(Nc3n[nH]c(N)n3)cc2C(F)(F)F)cc1` [Compound 3, (S)-1-[4′-(5-Amino-1H-[1,2,4]triazol-3-ylamino)-2′-chloro-6′-trifluoromethyl-biphenyl-4-sulfonyl]-pyrrolidine-2-carboxylic acid tert-butyl ester] was run?
**A.** The EC50 was 0.005 µM.

**Q.** And the EC50 [2, 4]?
**A.** The EC50 was 4.37 µM.

**Q.** What does the source list for `Nc1nc(Nc2cc(Cl)c(-c3ccc(NC(=O)CN4CCOCC4)cc3)c(C(F)(F)F)c2)n[nH]1` [Compound 241, [4′-(5-amino-1H-[1,2,4]triazol-3-ylamino)-2′-chloro-6′-trifluoromethyl-biphenyl-4-yl]-2-morpholin-4-yl-acetamide]?
**A.** EC50 [1, 3]: 0.123 µM; EC50 [2, 4]: > 10 µM

**Q.** How did the EC50 [1, 3] turn out when `COc1ccc(-c2c(Cl)cc(Nc3n[nH]c(N)n3)cc2C(F)(F)F)cc1S(=O)(=O)N(CC(F)(F)F)C1CCNCC1` [Compound 234, 4′-(5-Amino-1H-[1,2,4]triazol-3-ylamino)-6′-chloro-4-methoxy-2′-trifluoromethyl-biphenyl-3-sulfonic acid piperidin-4-yl-(2,2,2-trifluoro-ethyl)-amide; compound with trifluoro-acetic acid] was run?
**A.** Its EC50 is 0.005 µM.

**Q.** And the EC50 [2, 4]?
**A.** The EC50 was > 10 µM.

**Q.** What does the source list for `CC(C)(NS(=O)(=O)c1ccc(-c2c(Cl)cc(Nc3n[nH]c(N)n3)cc2C(F)(F)F)cc1)C(F)(F)F` [Compound 165, 4′-(5-amino-1H-1,2,4-triazol-3-ylamino)-2′-chloro-N-(1,1,1-trifluoro-2-methylpropan-2-yl)-6′-(trifluoromethyl)biphenyl-4-sulfonamide]?
**A.** EC50 [1, 3]: 0.009 µM; EC50 [2, 4]: > 10 µM

**Q.** With `COCCN1CCC(Oc2ccc(-c3c(Cl)cc(Nc4n[nH]c(N)n4)cc3C(F)(F)F)cc2)CC1` [Compound 143, N*3*-{6-Chloro-4′-[1-(2-methoxy-ethyl)-piperidin-4-yloxy]-2-trifluoromethyl-biphenyl-4-yl}-1H-[1,2,4]triazole-3,5-diamine hydrochloride] as the compound, how does the EC50 [1, 3] read?
**A.** The EC50 was 0.231 µM.

**Q.** What about the EC50 [2, 4] of the same compound?
**A.** The EC50 was 8.98 µM.

— patent US9693997B2, “Antiviral compounds” (priority 2013, dated 2017)
